Results: publication PMC13020021 (International Journal for Parasitology: Drugs and Drug …, 2026)
Entries after “also recorded” stand apart in the source; their conditions may differ.

Tests used:
[1] = tested on: natural TRPMPZQ variants; experiment: Ca2+ reporter assay, entire natural variation collection; format: cell-based, Schistosoma mansoni; details: mean ± sd
[2] = tested on: TRPMPZQ of pseudophyllidean cestodes; details: binding pocket variation of pseudophyllidean cestodes ref Sprague et al., 2025; cited from earlier work
[3] = tested on: Fasciola spp. TRPMPZQ; details: Fasciola spp. TRPMPZQ ref Park et al., 2021; cited from earlier work

Q: For `O=C(C1CCCCC1)N1CC(=O)N2CCc3ccccc3C2C1` (racemic) [(±)-PZQ, praziquantel], which “average RA of the entire natural variation collection” value [1] is on record?
A: Its value is 1.2 ± 0.55.

Q: What about the “sensitivity to PZQ” value [2] of the same compound?
A: The value was “micromolar range”.

Q: What about the “sensitivity of TRPMPZQ to PZQ” value [3] of the same compound?
A: The value was “insensitivity; also recorded: refractory”.
